These results are taken from ChEMBL document CHEMBL1135887, “Substituted pentacyclic carbazolones as novel muscarinic allosteric agents: synthesis and structure-affinity and cooperativity relationships” (J Med Chem, 2002).

Assay [1] concerns the target T1, Muscarinic acetylcholine receptor M1 (Homo sapiens) (UniProt P11229).
T1 sequence (whole entry): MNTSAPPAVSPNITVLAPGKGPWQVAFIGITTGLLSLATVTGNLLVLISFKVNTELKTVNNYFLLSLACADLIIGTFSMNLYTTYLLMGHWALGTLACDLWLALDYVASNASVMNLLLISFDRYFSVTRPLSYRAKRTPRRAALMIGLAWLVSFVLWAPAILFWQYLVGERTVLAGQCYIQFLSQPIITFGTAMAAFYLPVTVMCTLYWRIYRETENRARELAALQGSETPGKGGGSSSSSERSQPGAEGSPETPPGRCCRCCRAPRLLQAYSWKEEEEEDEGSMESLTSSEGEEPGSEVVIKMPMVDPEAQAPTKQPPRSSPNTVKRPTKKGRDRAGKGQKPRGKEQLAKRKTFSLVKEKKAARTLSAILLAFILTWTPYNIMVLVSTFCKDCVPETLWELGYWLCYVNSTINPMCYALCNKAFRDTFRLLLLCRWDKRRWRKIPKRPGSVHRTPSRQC
The assay can be described thus: Logarithm of affinity (log 1/M) at the (N-methyl Scopolamine) NMS-liganded muscarinic acetylcholine receptor M1 by using semiquantitative equilibrium and off-rate assay.

Assay [2] deals with T1, Muscarinic acetylcholine receptor M1 (Homo sapiens). As to the kind of experiment: Subtype selectivity and the cooperativity with N-methyl Scopolamine (NMS) at Muscarinic acetylcholine receptor M1; Activity range is 1.81-1.19.
The target of assay [3] is T2, Muscarinic acetylcholine receptor M4 (Homo sapiens) (UniProt P08173).
T2 sequence (whole entry): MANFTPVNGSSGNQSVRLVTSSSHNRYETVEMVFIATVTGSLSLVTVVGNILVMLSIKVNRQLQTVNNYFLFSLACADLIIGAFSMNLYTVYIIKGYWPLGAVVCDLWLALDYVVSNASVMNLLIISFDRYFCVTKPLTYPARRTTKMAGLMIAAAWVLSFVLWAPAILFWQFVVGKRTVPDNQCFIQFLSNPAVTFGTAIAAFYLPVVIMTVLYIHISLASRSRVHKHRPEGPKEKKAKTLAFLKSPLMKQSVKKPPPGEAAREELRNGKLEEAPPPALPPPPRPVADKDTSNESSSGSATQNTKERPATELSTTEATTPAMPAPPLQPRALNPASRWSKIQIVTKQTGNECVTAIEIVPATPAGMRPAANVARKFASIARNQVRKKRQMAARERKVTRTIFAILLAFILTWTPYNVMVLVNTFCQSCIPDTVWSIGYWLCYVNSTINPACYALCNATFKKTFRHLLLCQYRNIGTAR
As to the kind of experiment: Subtype selectivity and cooperativity with N-methyl Scopolamine (NMS) at Muscarinic acetylcholine receptor M4; Activity range is 1.2-3.

Assay [4] concerns the target T1, Muscarinic acetylcholine receptor M1 (Homo sapiens). As to the kind of experiment: Logarithm of affinity (log 1/M) at the free muscarinic acetylcholine receptor M1 by using semiquantitative equilibrium and off-rate assay.
Assay [5] concerns the target Muscarinic acetylcholine receptor M3 (Homo sapiens) (UniProt P20309). The assay can be described thus: Subtype selectivity and the cooperativity with N-methyl Scopolamine (NMS) at Muscarinic acetylcholine receptor M3; […].
Assay [6] deals with T2, Muscarinic acetylcholine receptor M4 (Homo sapiens). The assay can be described thus: Logarithm of affinity (log 1/M) at the (N-methyl Scopolamine) NMS-liganded muscarinic acetylcholine receptor M4 by using semiquantitative equilibrium and off-rate assay.
Assay [7] has the same target. As to the kind of experiment: Logarithm of affinity (log 1/M) at the muscarinic acetylcholine receptor M4 by using semiquantitative equilibrium and off-rate assay.
Assay [8] addresses T3, Muscarinic acetylcholine receptor M2 (Homo sapiens) (UniProt P08172).
T3 sequence (whole entry): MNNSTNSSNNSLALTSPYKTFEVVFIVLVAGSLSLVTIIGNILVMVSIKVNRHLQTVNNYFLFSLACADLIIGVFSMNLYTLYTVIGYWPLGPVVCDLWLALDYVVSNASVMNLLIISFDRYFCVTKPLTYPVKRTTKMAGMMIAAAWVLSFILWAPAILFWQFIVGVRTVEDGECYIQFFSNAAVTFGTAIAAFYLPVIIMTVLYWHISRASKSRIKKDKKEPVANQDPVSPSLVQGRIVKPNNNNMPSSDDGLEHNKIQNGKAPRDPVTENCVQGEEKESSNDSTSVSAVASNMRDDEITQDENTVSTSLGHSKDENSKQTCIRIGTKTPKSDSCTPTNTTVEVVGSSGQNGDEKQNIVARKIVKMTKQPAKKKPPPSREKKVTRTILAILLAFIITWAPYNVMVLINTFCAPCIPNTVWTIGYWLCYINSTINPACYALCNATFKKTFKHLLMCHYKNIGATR
The assay can be described thus: Subtype selectivity and the cooperativity with N-methyl Scopolamine (NMS) at Muscarinic acetylcholine receptor M2; activity range is 1.2-3.

In assay [9] the target is T3, Muscarinic acetylcholine receptor M2 (Homo sapiens). As to the kind of experiment: Logarithm of affinity (log 1/M) at the (N-methyl Scopolamine) NMS-liganded muscarinic acetylcholine receptor M2 by using semiquantitative equilibrium and off-rate assay.
For assay [10] the target is unchanged. The assay can be described thus: Logarithm of affinity (log 1/M) at the muscarinic acetylcholine receptor M2 by using semiquantitative equilibrium and off-rate assay.
Assay [11] deals with Muscarinic acetylcholine receptor M3 (Homo sapiens) (UniProt P20309). The assay can be described thus: Logarithm of affinity (log 1/M) at the (N-methyl Scopolamine) NMS-liganded muscarinic acetylcholine receptor M3 by using semiquantitative equilibrium and off-rate assay.
Sequence of Muscarinic acetylcholine receptor M3 (Homo sapiens) (P20309 whole entry, looked up): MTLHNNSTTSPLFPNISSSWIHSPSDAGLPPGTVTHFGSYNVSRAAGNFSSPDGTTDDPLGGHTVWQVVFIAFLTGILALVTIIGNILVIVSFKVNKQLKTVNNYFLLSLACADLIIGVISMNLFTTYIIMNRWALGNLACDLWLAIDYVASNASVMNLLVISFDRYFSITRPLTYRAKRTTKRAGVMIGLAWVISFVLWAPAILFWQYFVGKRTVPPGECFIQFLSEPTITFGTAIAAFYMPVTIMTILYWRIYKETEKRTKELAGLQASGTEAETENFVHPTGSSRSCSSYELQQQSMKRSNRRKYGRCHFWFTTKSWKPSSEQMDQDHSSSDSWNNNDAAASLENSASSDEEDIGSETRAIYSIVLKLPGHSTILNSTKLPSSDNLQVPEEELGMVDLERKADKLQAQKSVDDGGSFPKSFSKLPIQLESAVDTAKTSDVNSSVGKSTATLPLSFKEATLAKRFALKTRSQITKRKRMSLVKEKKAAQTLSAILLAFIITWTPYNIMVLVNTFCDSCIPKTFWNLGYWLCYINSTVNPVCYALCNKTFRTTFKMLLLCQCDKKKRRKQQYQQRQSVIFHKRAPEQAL
For assay [12] the target is unchanged. The assay can be described thus: Logarithm of affinity (log 1/M) at the muscarinic acetylcholine receptor M3 by using semiquantitative equilibrium and off-rate assay.
The target of assay [13] is T2, Muscarinic acetylcholine receptor M4 (Homo sapiens). The assay can be described thus: Subtype selectivity and the cooperativity with N-methyl Scopolamine (NMS) at Muscarinic acetylcholine receptor M4; Activity range is 0.81-1.19.
The target in assay [14] is Muscarinic acetylcholine receptor M3 (Homo sapiens) (UniProt P20309). As to the kind of experiment: Subtype selectivity and the cooperativity with N-methyl Scopolamine (NMS) at muscarinic acetylcholine receptor M3; Activity range is 0.2-0.8.
Assay [15] addresses T1, Muscarinic acetylcholine receptor M1 (Homo sapiens). As to the kind of experiment: Subtype selectivity and the cooperativity with N-methyl Scopolamine (NMS) at Muscarinic acetylcholine receptor M1; Activity range is 0.2-0.8.
Assay [16] addresses T3, Muscarinic acetylcholine receptor M2 (Homo sapiens). As to the kind of experiment: Subtype selectivity and the cooperativity with N-methyl Scopolamine (NMS) at Muscarinic acetylcholine receptor M2; Activity range is 0.81-1.19.
The target of assay [17] is T2, Muscarinic acetylcholine receptor M4 (Homo sapiens). As to the kind of experiment: Subtype selectivity and the cooperativity with N-methyl Scopolamine (NMS) at Muscarinic acetylcholine receptor M4; Activity range is 081-1.19.
Assay [18] deals with T3, Muscarinic acetylcholine receptor M2 (Homo sapiens). The assay can be described thus: Subtype selectivity and the cooperativity with N-methyl Scopolamine (NMS) at Muscarinic acetylcholine receptor M2; Activity range is 1.2-3.
Assay [19] has as its target T2, Muscarinic acetylcholine receptor M4 (Homo sapiens). The assay can be described thus: Subtype selectivity and the cooperativity with N-methyl Scopolamine (NMS) at Muscarinic acetylcholine receptor M4; Activity range is 0.2-0.8.
In assay [20] the target is Muscarinic acetylcholine receptor M3 (Homo sapiens) (UniProt P20309). The assay can be described thus: Subtype selectivity and the cooperativity with N-methyl Scopolamine (NMS) at Muscarinic acetylcholine receptor M3.
Assay [21] concerns the target T1, Muscarinic acetylcholine receptor M1 (Homo sapiens). The assay can be described thus: Subtype selectivity and the cooperativity with N-methyl Scopolamine (NMS) at Muscarinic acetylcholine receptor M1.
For assay [22], the target named is T3, Muscarinic acetylcholine receptor M2 (Homo sapiens). The assay can be described thus: Subtype selectivity and the cooperativity with N-methyl Scopolamine (NMS) at Muscarinic acetylcholine receptor M2.
The target of assay [23] is T2, Muscarinic acetylcholine receptor M4 (Homo sapiens). As to the kind of experiment: Subtype selectivity and the cooperativity with N-methyl Scopolamine (NMS) at Muscarinic acetylcholine receptor M4.
Assay [24] addresses T1, Muscarinic acetylcholine receptor M1 (Homo sapiens). The assay can be described thus: Subtype selectivity and the cooperativity with N-methyl Scopolamine (NMS) at Muscarinic acetylcholine receptor M1; activity value ranges from 0.81-1.19.
Assay [25] deals with Muscarinic acetylcholine receptor M3 (Homo sapiens) (UniProt P20309). As to the kind of experiment: Subtype selectivity and the cooperativity with N-methyl Scopolamine (NMS) at Muscarinic acetylcholine receptor M3; activity range is 0.81-1.19.
Assay [26] has as its target T2, Muscarinic acetylcholine receptor M4 (Homo sapiens). As to the kind of experiment: Subtype selectivity and the cooperativity with N-methyl Scopolamine (NMS) at Muscarinic acetylcholine receptor M4; Activity range is 1.2-3.
The target in assay [27] is T1, Muscarinic acetylcholine receptor M1 (Homo sapiens). The assay can be described thus: Subtype selectivity and the cooperativity with N-methyl Scopolamine (NMS) at Muscarinic acetylcholine receptor M1; Activity range is 0.81-1.19.
The target is the same in assay [28]. As to the kind of experiment: Subtype selectivity and the cooperativity with N-methyl Scopolamine (NMS) at Muscarinic acetylcholine receptor M1 Activity range is 0.2-0.8.

Regarding `O=C1CCc2cc3c(c4c5cc(O)ccc5n1c24)CNCC3`, the Log 1/M came out at 6.07 in [1]; 6.04 in assay [4]; 5.9 in assay [6]; 5.56 in assay [7]; 5.81 in assay [9]; 5.66 in assay [10]. In addition, the values for the Log 1/M in assay [11] and in assay [12] were 5.12 and 5.13, respectively. Further, the Cooperativity was 1.19 in assay [2], 3 in assay [3], 1.19 in assay [5] and 3 in assay [8].

With `O=C1CCc2cc3c(c4c5ccc(O)cc5n1c24)CNCC3`, the Cooperativity in assay [13] was determined as 1.19; in assay [14] it was 0.8; in [15], 0.8; in assay [16] it was 1.19. Moreover, the Log 1/M in assay [1] is 6.13; in assay [4] it was 6.59; in assay [6] it was 5.65; in assay [7] it was 5.52; in assay [9], 5.64; in assay [10], 5.6. Also, the Log 1/M in assay [11] was 5.23; in assay [12] it was 5.6.

On to `COc1ccc2c(c1)c1c3c(cc4c1n2C(=O)CC4)CCNC3`, for which the Log 1/M came out at 5.91 in assay [1]; 6.1 in assay [4]; 5.74 in assay [6]; 5.71 in assay [7]; 6.05 in [9]; 5.87 in assay [10]. Moreover, the Log 1/M came out at 4.76 in assay [11] and 5.21 in assay [12]. The Cooperativity in assay [17] came out at 1.19; in assay [14], 0.8; in [15], 0.8; in [18] it was 3.

As for `O=C(c1ccc2c(c1)c1c3c(cc4c1n2C(=O)CC4)CNCC3)N1CCOCC1`, the Cooperativity in assay [19] is 0.8; in [20], under 0.2; in assay [21], under 0.2; in [22], over 3. Further, the Log 1/M in assay [1] came out at 4.7; in assay [4] it was 5.1; in [6] it was 4.54; in assay [7], 5.14; in [9], 5.21; in assay [10], 4.71. The Log 1/M worked out at 3.57 in assay [11] and 4.45 in assay [12].

In the case of `COc1cc2c3c4c(c(COC(C)=O)c5c3n(c2cc1OC)C(=O)CC5)CNCC4`, the Cooperativity in assay [23] was over 3; in assay [24], 1.19; in [25], 1.19; in assay [22] it was over 3. The Log 1/M was 6.16 in assay [1]; 6.09 in assay [4]; 6.55 in [6]; 5.91 in assay [7]; 7.21 in assay [9]; 6.63 in [10]. Also, the values for the Log 1/M in assay [11] and in assay [12] were 5.85 and 5.69, respectively.

For `COc1cc2c3c4c(cc5c3n(c2cc1OC)C(=O)CC5)CNCC4`, the Log 1/M in assay [1] came out at 5.81; in assay [4], 6.05; in assay [6], 6.05; in [7], 4.8; in assay [9] it was 6.47; in assay [10] it was 6.15. Moreover, the figures for the Log 1/M in [11] and in [12] were 5.15 and 5.2, respectively. For the same molecule, the Cooperativity was determined as 3 in assay [26], 1.19 in assay [5], 0.8 in assay [15] and 3 in assay [18].

As to `COc1cc2c(c(OC)c1OC)c1c3c(cc4c1n2C(=O)CC4)CNCC3`, the Log 1/M stood at 6.52 in assay [1]; 6.74 in [4]; 6.21 in assay [6]; 5.97 in [7]; 6.67 in assay [9]; 6.69 in [10]. In addition, the Log 1/M in [11] was determined as 5.33; in [12], 5.63. In addition, the Cooperativity was 3 in assay [3], 0.8 in [14], 0.8 in assay [15] and 1.19 in assay [16].

`O=C1CCc2cc3c(c4c5cc(Cl)ccc5n1c24)CCNC3`: the Cooperativity in assay [23] was over 3; in assay [5], 1.19; in [27], 1.19; in assay [22], over 3. The Log 1/M in assay [1] was 5.58; in assay [4] it was 5.66; in assay [6], 6.14; in assay [7], 5.61; in assay [9] it was 6.54; in assay [10], 5.93. For the same molecule, the Log 1/M in assay [11] amounted to 5.23; in assay [12], 5.16.

Take `O=C1CCc2cc3c(c4c5cc(O)ccc5n1c24)CCNC3`: the Cooperativity in [23], in assay [20], in assay [21] and in assay [22] was over 3 throughout. In addition, the Log 1/M in [1] came out at 6.07; in [4], 5.79; in assay [6] it was 6.05; in assay [7], 5.65; in assay [9] it was 6.25; in assay [10], 5.61. In addition, the Log 1/M is 5.47 in assay [11] and 4.89 in assay [12].

Take `COc1cccc2c1c1c3c(cc4c1n2C(=O)CC4)CNCC3`: the Cooperativity in assay [13] is 1.19; in [5] it was 1.19; in assay [28], 0.8; in [18], 3. Further, the Log 1/M turned out to be 5.95 in [1]; 6.5 in [4]; 6.26 in assay [6]; 6.25 in assay [7]; 6.7 in assay [9]; 6.43 in assay [10]. Further, the Log 1/M in assay [11] turned out to be 5.52; in assay [12], 5.58.
